We go through one compound from US20240197687A1, “METHODS OF TREATING NEUROINFLAMMATION AND INHIBITING MONOAMINE OXIDASE-A AND RESTORING/UPREGULATING/INCREASING IL-13 AND AND PGC-1 BY ADMINISTERING ORAL DOSAGE FORM CONTAINING MICRONIZED AND NONMICRONIZED PARTICULATE METAXALONE, ALGINIC ACID AND PROPYLENE GLYCOL ALGINATE” (Primus Pharmaceuticals, Inc., priority 2022, published 2024).

Data set [1] has as its system Mouse Macrophages RAW264.7 cells. Particulars: LPS-stimulated mouse macrophages; cited from earlier work.
The test system of data set [2] is HMC3 microglial cells. Put plainly: Western blot protein levels in IL-1β-stimulated HMC3 cells. The class given is cell-based, Human. Particulars: metaxalone 10, 20, 40 μg/mL, p<0.0001 vs. IL-1β. The protocol: Western Blot Analysis. HMC3 cells were homogenized in RIPA buffer (25 mM Tris/HCl, pH 7.4; 1.0 mM EGTA; and 1.0 mM EDTA) with 1% of NP40, 0.5% of phenyl methylsulfonyl fluoride (PMSF), aprotinin, and leupeptin and pepstatin (10 μg/mL each) to perform protein extraction. Lysates were centrifuged at 15,000×g for 15 min at 4° C. and the supernatant was collected for protein determination using a specific kit (Bio-Rad DC; Bio-Rad, Richmond, CA, USA). Samples were denatured in a reducing buffer (62 mM Tris pH 6.8, 10% glycerol, 2% SDS, 5% β-mercaptoethanol, and 0.003% bromophenol blue) and proteins were separated by electrophoresis on SDS polyacrylamide gels. Following electrophoresis, samples were transferred onto a PVDF membrane (Amersham, Little Chalfont, UK) in a transfer buffer (39 mM glycine, 48 mM Tris pH 8.3, and 20% methanol) at 200 mA for 1 h. The obtained membranes were incubated with 5% non-fat dry milk in TBS/0.1% Tween for 1 h at room temperature, washed 3 times in TBS/0.1% Tween, and incubated with primary antibodies to detect pNF-κB, PPARγ, PGC-1α (Cell Signaling, Danvers, MA, USA), NRF-2, and MAO-A (Abcam, Cambridge, UK), diluted in TBS/0.1% Tween overnight at 4° C. The day after, following 3 washes with TBS/0.1% Tween, membranes were incubated with secondary peroxidase-conjugated goat anti-mouse and anti-rabbit antibodies (KPL, Gaithersburg, MD, USA) for 1 h at room temperature. After washing, membranes were analyzed by the enhanced chemiluminescence system (LumiGlo reserve; Seracare, Milford, MA, USA). The protein signal was detected and quantified by scanning densitometry using a bio-image analysis system (C-DiGit, Li-cor, Lincoln, NE, USA). The results were expressed as relative integrated intensity and β-actin (Cell Signaling, Danvers, MA, USA) was used to confirm equal protein loading. (See, […]. et al. β-Caryophyllene Inhibits Cell Proliferation through a Direct Modulation of CB2 Receptors in Glioblastoma Cells. Cancers 2020, 12, 1038).

In data set [3] the test system is HMC3 microglial cells. Put plainly: RT-qPCR mRNA expression in IL-1β-stimulated HMC3 microglial cells. The format is cell-based, Human. Particulars: metaxalone 10, 20, 40 μg/mL, p<0.0001 vs. IL-1β. The protocol: Human microglial HMC3 cell line (CRL-3304) was obtained from ATCC (American Type Culture Collection; Manassas, VA, USA). Cells were cultured in Eagle's minimum essential medium (EMEM) with a supplement of 10% fetal bovine serum (FBS) and 1% antibiotic mixture, and were incubated at 37° C. with 5% of CO2. Both medium and supplements were provided by ATCC (Manassas, VA, USA). Cells were seeded in 6-well plates at a density of 4×10^5 cells/well. A stock solution of metaxalone (Sigma Aldrich, Milan, Italy) was prepared by dissolving metaxalone in DMSO. Sixteen hours after plating (time 0), metaxalone was added at the doses of 10, 20, and 40 μg/mL 1 h following IL-1β stimulation (5 ng/mL; Sigma Aldrich, Milan, Italy). After 6 h cells were harvested for mRNA evaluation. In a separate set of plates, cells were incubated for 24 h before MTT assay to evaluate cell viability. The dose-response curve for IL-1β stimulation can be found at Supplemental FIG. S1. Total RNA was extracted from human microglial HMC3 for RT-qPCR using Trizol LS reagent (Invitrogen, Carlsbad, CA, USA). Two μg of total RNA was reverse transcribed in a final volume of 20 μL using a Superscript VILO kit (Invitrogen, Carlsbad, CA, USA). […] The final primer concentration used to carry out the analysis was 10 μM. Samples from each group were run in duplicate and β-actin was used as an endogenous control. Results were calculated using the 2-ΔΔCT method and expressed as n-fold increase in gene expression using control group as calibrator. […]. et al. Activation of A2A Receptor by PDRN Reduces Neuronal Damage and Stimulates WNT/β-CATENIN Driven Neurogenesis in Spinal Cord Injury. Front. Pharmacol. 2018, 9, 506. Pizzino, G. et al. Effects of the antagomiRs 15b and 200b on the altered healing pattern of diabetic mice. Br. J. Pharmacol. 2018, 175, 644-655.

Data set [4] has as its target T1, monoamine oxidase A (MAO-A) (Homo sapiens, UniProt P21397).
T1 sequence (P21397 1-527): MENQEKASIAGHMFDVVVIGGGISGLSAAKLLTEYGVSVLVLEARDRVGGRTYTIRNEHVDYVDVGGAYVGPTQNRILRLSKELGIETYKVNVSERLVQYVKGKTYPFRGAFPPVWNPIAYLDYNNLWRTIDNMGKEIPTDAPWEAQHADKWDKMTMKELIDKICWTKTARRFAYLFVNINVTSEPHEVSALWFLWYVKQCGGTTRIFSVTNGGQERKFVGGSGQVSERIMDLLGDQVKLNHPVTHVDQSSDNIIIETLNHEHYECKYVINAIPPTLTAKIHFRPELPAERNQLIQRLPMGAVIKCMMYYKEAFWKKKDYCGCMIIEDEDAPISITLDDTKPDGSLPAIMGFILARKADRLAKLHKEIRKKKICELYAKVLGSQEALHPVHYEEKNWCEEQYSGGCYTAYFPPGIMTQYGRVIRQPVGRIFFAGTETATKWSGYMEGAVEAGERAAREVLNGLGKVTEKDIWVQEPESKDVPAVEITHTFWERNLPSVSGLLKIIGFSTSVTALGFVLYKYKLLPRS
Particulars: cited from earlier work.

In data set [5] the test system is CYP1A2, CYP2B6, CYP2C9, CYP2C19, CYP2D6, CYP2E1, CYP3A. Particulars: cited from earlier work.

Structures are written as SMILES.

For `Cc1cc(C)cc(OCC2CNC(=O)O2)c1` (centres unmarked) [metaxalone, 5-[(3,5-dimethylphenoxy)methyl]-2-oxazolidinone], the inflammatory cytokines entry in data set [1] is “robust reduction”. Besides, in the data set with HMC3 microglial cells [2] (dose-dependent), the NRF-2 protein levels result is given as “significantly increased”. In addition, in the data set with HMC3 microglial cells [2], the PGC-1α protein expression entry is listed as “stimulated”, the PPARγ protein expression entry is “stimulated” and the p-NF-κB protein levels entry is “blunted the increase”. The “IL-6 mRNA expression” value in the data set with HMC3 microglial cells [3] (IL-1β (5 ng/mL)-stimulated HMC3 cells (IL-6 increased by IL-1β), 6 h, dose-dependent) is given as “significantly reverted”. Further, the “IL-13 mRNA expression” value with HMC3 microglial cells [3] (IL-1β (5 ng/mL)-stimulated HMC3 cells (IL-13 decreased by IL-1β), 6 h, dose-dependent) is “significantly reverted”. The “TNF-α mRNA expression” value in the data set with HMC3 microglial cells [3] (IL-1β (5 ng/mL)-stimulated HMC3 cells (TNF-α increased by IL-1β), 6 h, dose-dependent) was “significantly reverted”. Moreover, the “NF-κB mRNA expression” value in the data set with HMC3 microglial cells [3] (IL-1β-stimulated HMC3 cells, dose-dependent) is “significantly reduced”. Also, in the data set on HMC3 microglial cells [3] (IL-1β-stimulated HMC3 cells), the “NRF-2 mRNA expression” value is “significantly upregulated”, the “PGC-1α mRNA expression” value is recorded as “marked increase” and the “PPARγ mRNA expression” value was “marked increase”. The “MAO-A mRNA expression” value in the data set on HMC3 microglial cells [3] (IL-1β-stimulated microglia cells, dose-dependent) is on record as “markedly reduced”. The MAO-A inhibition entry in data set [4] is on record as “reported to inhibit”. Moreover, in data set [5], the CYP induction result is “inducer of CYP1A2 and CYP3A4”; the CYP inhibition result was “inhibitor of CYP1A2, CYP2B6, CYP2C9, CYP2C19, CYP2D6, CYP2E1, and CYP3A”; the CYP substrate status result is “substrate of CYP1A2 and CYP2C19”.
